Values quoted from earlier work as cited in patent US20060069068A1, “Methods and compositions for the treatment of diseases characterized by pathological calcification” (Nanobac Pharmaceuticals, Inc., priority 2004, published 2006).

Experiments:
[1] = both in vitro and in vivo; comparator etidronate
[2] = tested on: Nanobacteria; settings: background statement

| Compound | potency relative to etidronate [1] | killing of Nanobacteria [2] |
| --- | --- | --- |
| NCCCC(O)(P(=O)(O)O)P(=O)(O)O [alendronate] | approximately 700 fold |  |
| Penicillin |  | cannot be killed |
